Reference: US20250177384A1, “CHROMANOL COMPOUNDS FOR TREATMENT OR PROPHYLAXIS OF AGEING-ASSOCIATED DISORDERS” (Sulfateq B.V., priority 2022, published 2025)

Assays:
W1118 flies = test: Drosophila lifespan with compound added to the food; type: in vivo; conditions: for survival of flies versus controls: higher doses of 10, 100, 1000 μM in food, from larvae state until death, FIG. 1, FIG. 2; for lifespan of Drosophila: treatment via food
Protocol: […] flies were bred and housed at 25° C. with a 12 h:12 h light/dark-cycle. Flies were kept in vials containing approximately 5 mL of Bloomington food consisting of sucrose, yeast suspension, agar, […] and fresh yeast. Flies kept as a stock were flipped to fresh vials weekly. Food was stored at 18° C. and warmed at room temperature before use. SUL109 and SUL121 were used to assess the effect of chromanol compounds on the lifespan of the fly stocks. The compounds were independently tested. Either SUL109 or SUL121 were added to the food to a final concentration of 10 μM, 100 μM and 1000 μM. […] flies were anesthetized in small groups using CO2. Subsequently, flies were collected at a density of […] per tube. At day 10 and 11 eclosing adults were anesthetized and housed at a density of 20 males and females per tube. Ten vials were used per study condition (total of 100 males and 100 females). During the lifespan, flies were transferred onto new vials containing fresh food 3 times a week, and the number and sex of dead flies was recorded.

[1] = system: accelerated aging animal models; conditions: chronic treatment; cited from earlier work
Ercc1−/− (EC-KO) mice [2] = test: Renal function: urine creatinine, urine albumin, plasma creatinine after chronic treatment; type: in vivo
Protocol: (§1) EC-KO mice and corresponding littermates (LM) received either SUL138 treated (30 mg SUL138/kg BW/day) or vehicle treated (0.015% [v/v] ethanol) chow for 8 weeks (14-22 weeks of age).
At the age of 21 weeks, animals were put in metabolic cages. After 10 h of acclimatization, 24 h urine was collected. At the age of 22 weeks, mice were euthanized, urine, blood plasma and tissue were collected.
[…] levels in urine were measured in the samples collected at the age of 21 weeks and at the time euthanasia (22 weeks). QuantiChrom Creatinine Assay Kit (1:2 sample dilution) was used according to manufacturer's instructions.
Albumin levels in urine were measured in the samples collected at the time euthanasia (22 weeks). Mouse albumin ELISA kit ab108792 (1:400 sample dilution) was used according to manufacturer's instructions.
Blood plasma creatinine was measured in the samples collected at the time euthanasia (22 weeks). […]. QuantiChrom Creatinine Assay Kit […] was used according to manufacturer's instructions.

[3] = system: thoracic aorta segments of EC-KO mice; test: Acute effect on endothelium-dependent relaxation (pre-incubation of aorta segments); conditions: pre-incubation 100 μM for 30 minutes
Protocol: (§2) Segments of thoracic aorta were isolated and mounted in wire-myograph containing Krebs Henseleit buffer (at 37° C., oxygenated with 95% O2 and 5% CO2) to assess endothelium-dependent (ED) relaxation.
(§3) A stable synthetic analog of the endoperoxide prostaglandin PGH2, namely U46619, was used for pre-constriction. Thoracic aorta segments were washed and subsequently pre-constricted with U46619 (30-60 nM final concentration; 75-100% of the response to 100 mM KCl), followed by a dose response curve with ED vasodilator acetylcholine (ACh) (10^−9-10^−5 M final concentration).
The acute effect of SUL138 was evaluated by pre-incubating with 100 μM for 30 minutes.

Ercc1−/− (EC-KO) mice [4] = test: Endothelium-dependent relaxation of thoracic aorta segments (wire-myograph) after chronic treatment; type: in vivo
Protocol: as §1, §2
Contraction of the thoracic aorta isolates was induced with 100 mM KCl (final concentration) to evaluate vessel viability.
as §3
To evaluate the contribution of different pathways to vasodilator response, segments were incubated with inhibitors for 15 minutes prior to pre-constriction with U46619. L-NAME (10^−4 M) was added to assess nitric oxide (NO) contribution to vasodilator response. L-NAME, apamin (100 nM) and TRAM-34 (10 μM) were added to assess ED hyperpolarization factor (EDHF) contribution to vasodilator response.

[5] = system: Ercc1-deficient mouse models; test: Persistent DNA damage in Ercc1-deficient mouse models; type: in vivo; conditions: no method or data given

With `Cc1c(C)c2c(c(C)c1O)CCC(C)(C(=O)N1CCN(CCO)CC1)O2` (stereo not drawn) [SUL109, (6-hydroxy-2,5,7,8-tetramethylchroman-2-yl)(4-(2-hydroxyethyl)piperazin-1-yl)methanone] the “survival of flies versus controls” value (W1118 flies) was “better survival than the controls” and the “lifespan of Drosophila” value (W1118 flies) was “increased lifespan”.
In the case of `CCCc1nn(C)c2c(=O)[nH]c(-c3cc(S(=O)(=O)N4CCN(C)CC4)ccc3OCC)nc12` [sildenafil], the “endothelial dependent relaxation / vasomotor (vasodilator) function” value [1] is given as “not able to improve endothelial dependent relaxation”.
In the case of `Cc1c(C)c2c(c(C)c1O)CCC(C)(C(=O)N1CCNCC1)O2` (stereo not drawn) [SUL121, (6-hydroxy-2,5,7,8-tetramethylchroman-2yl)(piperazin-1-yl)methanone], the “survival of flies versus controls” value (W1118 flies) is reported as “better survival than the controls” and the “lifespan of Drosophila” value (W1118 flies) is reported as “increased lifespan”.
In the case of `Cc1c(C)c2c(c(C)c1O)CC[C@@](C)(C(=O)N1CCN(CCO)CC1)O2` [SUL138, S-(6-hydroxy-2,5,7,8-tetramethylchroman-2-yl)(4-(2-hydroxyethyl)piperazin-1-yl)methanone], the “albumin/creatinine ratio in urine” value (Ercc1−/− (EC-KO) mice [2]; EC-KO mice, 22 weeks, FIG. 8) is reported as “significant improvement of albumin/creatinine ratios”, the “creatinine filtration (creatinine in 24 h urine)” value (Ercc1−/− (EC-KO) mice [2]; EC-KO mice, 24 h urine at 21 weeks, FIG. 10) is reported as “significantly improved” and the “creatinine filtration (urine creatinine)” value (Ercc1−/− (EC-KO) mice [2]; EC-KO mice, urine at 22 weeks, FIG. 7) is reported as “significantly improved creatinine filtration”. The “renal function (summary)” value (Ercc1−/− (EC-KO) mice [2]; Ercc1-deficient mouse models) was “protection of renal function”, the “ED relaxation after acute treatment” value [3] was “no effect on ED relaxation” and the “ED relaxation (acetylcholine response after U46619 pre-constriction)” value (Ercc1−/− (EC-KO) mice [4]; chronic treatment 30 mg/kg BW/day in chow for 8 weeks, EC-KO mice, compared to LM control levels, FIG. 3) was “restored ED relaxation”. For the same compound, the “pathway contribution to ACh response (EDHF-driven ED relaxation)” value (Ercc1−/− (EC-KO) mice [4]; chronic treatment, EC-KO mice, L-NAME curve, FIG. 6) was “increased EDHF-driven ED relaxation”, the “vascular function (summary)” value (Ercc1−/− (EC-KO) mice [4]; chronic treatment, isolated tissue from Ercc1-deficient mouse models) was “full preservation of vascular function through EDHF rescue” and the “accumulation of persistent DNA damage” value [5] was “attenuation of the accumulation of persistent DNA damage”.
In the case of `CCCCc1nc(Cl)c(CO)n1Cc1ccc(-c2ccccc2-c2nn[nH]n2)cc1` [losartan], the “endothelial dependent relaxation / vasomotor (vasodilator) function” value [1] is listed as “did not have a beneficial effect”.
